Results on 32 molecules are retold here after patent US20210317134A1, “UBIQUITIN-SPECIFIC-PROCESSING PROTEASE 7 (USP7) MODULATORS AND USES THEREOF” (RAPT THERAPEUTICS, INC., priority 2019, published 2021).

The assay addresses USP7 (Homo sapiens, UniProt Q93009). Nature of the assay: USP7 inhibitory potency (Table 1). The format is biochemical.

USP7, sequence (Q93009 whole entry): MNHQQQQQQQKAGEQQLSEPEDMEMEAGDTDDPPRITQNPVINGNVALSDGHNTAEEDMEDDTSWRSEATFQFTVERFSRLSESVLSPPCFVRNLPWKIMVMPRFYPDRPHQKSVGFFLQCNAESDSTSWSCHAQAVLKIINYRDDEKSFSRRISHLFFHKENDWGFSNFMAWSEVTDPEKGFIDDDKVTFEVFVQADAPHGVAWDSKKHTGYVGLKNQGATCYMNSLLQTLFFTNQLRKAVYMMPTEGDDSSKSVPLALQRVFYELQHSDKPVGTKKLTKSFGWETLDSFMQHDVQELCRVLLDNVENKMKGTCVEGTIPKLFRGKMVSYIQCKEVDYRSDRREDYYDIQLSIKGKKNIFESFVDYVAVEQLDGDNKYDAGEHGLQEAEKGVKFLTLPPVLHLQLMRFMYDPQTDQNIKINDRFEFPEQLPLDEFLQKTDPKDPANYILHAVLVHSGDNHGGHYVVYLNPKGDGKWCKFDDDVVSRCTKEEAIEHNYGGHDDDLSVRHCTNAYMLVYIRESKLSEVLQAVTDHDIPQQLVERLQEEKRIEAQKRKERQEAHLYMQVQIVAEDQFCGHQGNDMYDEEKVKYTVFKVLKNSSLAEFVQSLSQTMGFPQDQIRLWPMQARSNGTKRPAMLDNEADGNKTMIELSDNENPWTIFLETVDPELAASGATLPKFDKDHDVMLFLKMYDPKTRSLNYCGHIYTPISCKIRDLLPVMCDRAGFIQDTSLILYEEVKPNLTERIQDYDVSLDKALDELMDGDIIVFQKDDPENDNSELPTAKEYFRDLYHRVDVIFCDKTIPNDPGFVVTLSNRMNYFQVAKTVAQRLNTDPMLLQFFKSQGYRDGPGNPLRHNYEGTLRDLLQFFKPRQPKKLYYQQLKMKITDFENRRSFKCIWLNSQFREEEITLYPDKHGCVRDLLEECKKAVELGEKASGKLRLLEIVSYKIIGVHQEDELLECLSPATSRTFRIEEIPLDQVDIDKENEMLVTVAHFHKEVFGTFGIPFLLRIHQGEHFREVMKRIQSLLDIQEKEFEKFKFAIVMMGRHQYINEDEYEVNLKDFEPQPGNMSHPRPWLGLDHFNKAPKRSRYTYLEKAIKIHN

For orientation: IC50 means the point on the concentration scale where inhibition reaches its midpoint. Regarding `CN(C)S(=O)(=O)CCc1cc2nccc(-c3cc(Cl)cc4c3O[C@@H](C(=O)N3CCNCC3)C4)c2s1` [(R)-2-(7-(5-chloro-2-(piperazine-1-carbonyl)-2,3-dihydrobenzofuran-7-yl)thieno[3,2-b]pyridin-2-yl)-N,N-dimethylethane-1-sulfonamide], the IC50 is below 1000 nM.

The molecule `O=C1c2ccccc2C2(c3cc4ncnc(-c5cc(Cl)cc6c5O[C@@H](c5onc7c5CNCC7)C6)c4s3)OCCN12` (stereo partly drawn) [9b-(4-((R)-5-chloro-2-(4,5,6,7-tetrahydroisoxazolo[4,3-c]pyridin-3-yl)-2,3-dihydrobenzofuran-7-yl)thieno[3,2-d]pyrimidin-6-yl)-2,3-dihydrooxazolo[2,3-a]isoindol-5(9bH)-one] had an IC50 of 10000 to 30000 nM.

As for `Fc1cccc2c(-c3cc(Cl)cc4c3O[C@@H](c3onc5c3CNCC5)C4)ccnc12` [(R)-3-(5-chloro-7-(8-fluoroquinolin-4-yl)-2,3-dihydrobenzofuran-2-yl)-4,5,6,7-tetrahydroisoxazolo[4,3-c]pyridine], the IC50 lay in the range of 1000 to 10000 nM. Next, `Nc1cc(-c2cc(Cl)cc3c2OC(C(=O)N2CCNCC2)C3)ccn1` (centres unmarked) [(7-(2-Aminopyridin-4-yl)-5-chloro-2,3-dihydrobenzofuran-2-yl)(piperazin-1-yl)methanone]: 1000 to 10000 nM; `CCC(O)c1cc2nccc(-c3cc(Cl)cc4c3OC(c3onc5c3CNCC5)C4)n2n1` (centres unmarked) [1-(7-(5-chloro-2-(4,5,6,7-tetrahydroisoxazolo[4,3-c]pyridin-3-yl)-2,3-dihydrobenzofuran-7-yl)pyrazolo[1,5-a]pyrimidin-2-yl)propan-1-ol]: 1000 to 10000 nM; `N#Cc1ccc2c(-c3cc(Cl)cc4c3O[C@@H](c3n[nH]c5c3CNCC5)C4)ccnc2c1` [(R)-4-(5-chloro-2-(4,5,6,7-tetrahydro-1H-pyrazolo[4,3-c]pyridin-3-yl)-2,3-dihydrobenzofuran-7-yl)quinoline-7-carbonitrile]: below 1000 nM.

For the molecule `NCc1cc(-c2cc(Cl)cc3c2O[C@@H](c2onc4c2CNCC4)C3)c2ccccc2n1` [(R)-(4-(5-chloro-2-(4,5,6,7-tetrahydroisoxazolo[4,3-c]pyridin-3-yl)-2,3-dihydrobenzofuran-7-yl)quinolin-2-yl)methanamine], the IC50 fell in the range of 1000 to 10000 nM. Molecule `CN1CCN(Cc2cc3nccc(-c4cc(Cl)cc5c4O[C@@H](C(=O)N4CCNCC4)C5)c3s2)C1=O` [(R)-1-((7-(5-chloro-2-(piperazine-1-carbonyl)-2,3-dihydrobenzofuran-7-yl)thieno[3,2-b]pyridin-2-yl)methyl)-3-methylimidazolidin-2-one] had an IC50 below 1000 nM. Molecule `O=C(C1Cc2cc(Cl)cc(-c3ccnc4[nH]ccc34)c2O1)N1CCC(O)(c2cccc3ncccc23)CC1` (centres unmarked) [(5-chloro-7-(1H-pyrrolo[2,3-b]pyridin-4-yl)-2,3-dihydrobenzofuran-2-yl)(4-hydroxy-4-(quinolin-5-yl)piperidin-1-yl)methanone] registered an IC50 of 1000 to 10000 nM. `CNC(=O)c1cc2c(-c3cc(Cl)cc4c3OC(C(=O)N3CCNCC3)C4)ccnc2[nH]1` (centres unmarked) [4-(5-Chloro-2-(piperazine-1-carbonyl)-2,3-dihydrobenzofuran-7-yl)-N-methyl-1H-pyrrolo[2,3-b]pyridine-2-carboxamide] displayed an IC50 of 10000 to 30000 nM.

For the molecule `CCC(O)c1cc2nccc(-c3cc(Cl)cc4c3O[C@@H](c3ocnc3CNC)C4)c2s1` (stereo partly drawn) [1-(7-((R)-5-chloro-2-(4-((methylamino)methyl)oxazol-5-yl)-2,3-dihydrobenzofuran-7-yl)thieno[3,2-b]pyridin-2-yl)propan-1-ol], the IC50 was below 1000 nM.

For the molecule `CCC(O)c1cc2nccc(-c3cc(Cl)cc4c3O[C@@H](C(=O)N3CCC(c5cnc[nH]5)CC3)C4)c2s1` (stereo partly drawn) [(4-(1H-imidazol-5-yl)piperidin-1-yl)((2R)-5-chloro-7-(2-(1-hydroxypropyl)thieno[3,2-b]pyridin-7-yl)-2,3-dihydrobenzofuran-2-yl)methanone], the IC50 was 1000 to 10000 nM. Next, `O=C(C1Cc2cc(Cl)cc(-c3ccnc4[nH]ccc34)c2O1)N1CCN(c2ccccn2)CC1` (centres unmarked) [(5-Chloro-7-(1H-pyrrolo[2,3-b]pyridin-4-yl)-2,3-dihydrobenzofuran-2-yl)(4-(pyridin-2-yl)piperazin-1-yl)methanone]: 10000 to 30000 nM; `CN(C)S(=O)(=O)NCCc1cc2nccc(-c3cc(Cl)cc4c3O[C@@H](C(=O)N3CCNCC3)C4)c2s1` [(R)-N-(2-(7-(5-chloro-2-(piperazine-1-carbonyl)-2,3-dihydrobenzofuran-7-yl)thieno[3,2-b]pyridin-2-yl)ethyl)dimethylamimosulfonylurea]: below 1000 nM.

The molecule `CCC(O)C1Cc2nccc(-c3cc(Cl)cc4c3O[C@@H](C(=O)N3CCNCC3)C4)c2C1` (stereo partly drawn) [((2R)-5-chloro-7-(6-(1-hydroxypropyl)-6,7-dihydro-5H-cyclopenta[b]pyridin-4-yl)-2,3-dihydrobenzofuran-2-yl)(piperazin-1-yl)methanone] had an IC50 below 1000 nM. Next, `O=C([C@H]1Cc2cc(Cl)cc(-c3ccnc4cc(N5C(=O)CCC5=O)ccc34)c2O1)N1CCNCC1` [(R)-1-(4-(5-chloro-2-(piperazine-1-carbonyl)-2,3-dihydrobenzofuran-7-yl)quinolin-7-yl)pyrrolidine-2,5-dione]: below 1000 nM; `CCC(O)c1cc2nccc(-c3cc(Cl)cc4c3OC(CN3CCNCC3)C4)c2s1` (centres unmarked) [1-(7-(5-chloro-2-(piperazin-1-ylmethyl)-2,3-dihydrobenzofuran-7-yl)thieno[3,2-b]pyridin-2-yl)propan-1-ol]: 10000 to 30000 nM; `O=C([C@H]1Cc2cc(Cl)cc(-c3ccnc4ccsc34)c2O1)N1CCC(N2CCCCC2)CC1` [(R)-[1,4′-bipiperidin]-1′-yl(5-chloro-7-(thieno[3,2-b]pyridin-7-yl)-2,3-dihydrobenzofuran-2-yl)methanone]: 1000 to 10000 nM. Next, `COc1ccc2nccc(-c3cc(Cl)cc4c3OC(C(=O)N3CCNCC3)C4)c2c1` (centres unmarked) [(5-chloro-7-(6-methoxyquinolin-4-yl)-2,3-dihydrobenzofuran-2-yl)(piperazin-1-yl)methanone]: 10000 to 30000 nM; `CS(=O)(=O)NCc1cc2nccc(-c3cc(Cl)cc4c3O[C@@H](c3onc5c3CNCC5)C4)c2s1` [(R)-N-((7-(5-chloro-2-(4,5,6,7-tetrahydroisoxazolo[4,3-c]pyridin-3-yl)-2,3-dihydrobenzofuran-7-yl)thieno[3,2-b]pyridin-2-yl)methyl)methanesulfonamide]: below 1000 nM.

On to `Clc1cc2c(c(-c3ccnc4[nH]ccc34)c1)OC(c1onc3c1CCNC3)C2` (centres unmarked) [3-(5-chloro-7-(1H-pyrrolo[2,3-b]pyridin-4-yl)-2,3-dihydrobenzofuran-2-yl)-4,5,6,7-tetrahydroisoxazolo[3,4-c]pyridine], for which the IC50 lay in the range of 1000 to 10000 nM. Next, `CN(C)C1CCCN(C(=O)[C@H]2Cc3cc(Cl)cc(-c4ccnc5cc(CO)sc45)c3O2)C1` (stereo partly drawn) [((R)-5-chloro-7-(2-(hydroxymethyl)thieno[3,2-b]pyridin-7-yl)-2,3-dihydrobenzofuran-2-yl)(3-(dimethylamino)piperidin-1-yl)methanone]: below 1000 nM; `O=C(C1Cc2cc(Cl)cc(-c3ccnc4ccc(F)cc34)c2O1)N1CCNCC1` (centres unmarked) [(5-chloro-7-(6-fluoroquinolin-4-yl)-2,3-dihydrobenzofuran-2-yl)(piperazin-1-yl)methanone]: 1000 to 10000 nM. Next, `Nc1nccc(-c2cc(Cl)cc3c2OC(C(=O)N2CCNCC2)C3)c1Cl` (centres unmarked) [(7-(2-amino-3-chloropyridin-4-yl)-5-chloro-2,3-dihydrobenzofuran-2-yl)(piperazin-1-yl)methanone]: 1000 to 10000 nM; `Cc1nnc2n1CCN(C(=O)[C@H]1Cc3cc(Cl)cc(-c4ccnc5cc(CO)sc45)c3O1)C2` [(R)-(5-chloro-7-(2-(hydroxymethyl)thieno[3,2-b]pyridin-7-yl)-2,3-dihydrobenzofuran-2-yl)(3-methyl-5,6-dihydro-[1,2,4]triazolo[4,3-a]pyrazin-7(8H)-yl)methanone]: 1000 to 10000 nM. Next, `CCC(O)c1cc2nccc(-c3cc(Cl)cc4c3O[C@@H](c3c5c(nn3C)CCNC5)C4)c2s1` (stereo partly drawn) [1-(7-((R)-5-chloro-2-(2-methyl-4,5,6,7-tetrahydro-2H-pyrazolo[4,3-c]pyridin-3-yl)-2,3-dihydrobenzofuran-7-yl)thieno[3,2-b]pyridin-2-yl)propan-1-ol]: below 1000 nM. The molecule `O=C(C1Cc2cc(Cl)cc(-c3ccnc4[nH]ccc34)c2O1)N1CCC(O)(Cc2ccccc2)CC1` (centres unmarked) [(4-benzyl-4-hydroxypiperidin-1-yl)(5-chloro-7-(1H-pyrrolo[2,3-b]pyridin-4-yl)-2,3-dihydrobenzofuran-2-yl)methanone] had a 50% inhibitory concentration (IC50) of 1000 to 10000 nM.

For `CC(=O)NC(C)c1cc2nccc(-c3cc(Cl)cc4c3O[C@@H](C(=O)N3CCNCC3)C4)c2s1` (stereo partly drawn) [N-(1-(7-((R)-5-chloro-2-(piperazine-1-carbonyl)-2,3-dihydrobenzofuran-7-yl)thieno[3,2-b]pyridin-2-yl)ethyl)acetamide], the IC50 is below 1000 nM. Molecule `CCC(O)c1cc2nccc(-c3cc(Cl)cc4c3O[C@@H](c3onc5c3CNCC5)C4)c2o1` (stereo partly drawn) [drawing 1522, 1-(7-((R)-5-chloro-2-(4,5,6,7-tetrahydroisoxazolo[4,3-c]pyridin-3-yl)-2,3-dihydrobenzofuran-7-yl)furo[3,2-b]pyridin-2-yl)propan-1-ol] registered an IC50 below 1000 nM.

In turn, `CCC(O)c1cc2ncnc(-c3cc(Cl)cc4c3O[C@@H](c3onc5c3CNCC5)C4)c2s1` (stereo partly drawn) [drawing 1596, 1-(4-((R)-5-chloro-2-(4,5,6,7-tetrahydroisoxazolo[4,3-c]pyridin-3-yl)-2,3-dihydrobenzofuran-7-yl)thieno[3,2-d]pyrimidin-6-yl)propan-1-ol] had an IC50 below 1000 nM. The molecule `COc1cccc2c(-c3cc(Cl)cc4c3OC(C(=O)N3CCNCC3)C4)ccnc12` (centres unmarked) [(5-chloro-7-(8-methoxyquinolin-4-yl)-2,3-dihydrobenzofuran-2-yl)(piperazin-1-yl)methanone] registered an IC50 of 10000 to 30000 nM.

As to `CN(C)C1CCc2noc([C@H]3Cc4cc(Cl)cc(-c5ccnc6cc(CO)sc56)c4O3)c2C1` (stereo partly drawn) [(7-((2R)-5-chloro-2-(5-(dimethylamino)-4,5,6,7-tetrahydrobenzo[c]isoxazol-3-yl)-2,3-dihydrobenzofuran-7-yl)thieno[3,2-b]pyridin-2-yl)methanol], the IC50 is below 1000 nM.
